From patent publication US5393869A, “Parathyroid hormone derivatives” (Takeda Chemical Industries, Ltd., priority 1990, dated 1995)

Biological target: T1, PTH receptor (Mus musculus, UniProt P41593)
T1 construct: a mouse cranial bone-derived osteoblast-like cell strain, MC3T3-EI cells, cultivated on a 96-well multiplate; endogenous in cells; host or cells: MC3T3-E1 mouse osteoblast-like cells
T1 sequence (P41593 27-591): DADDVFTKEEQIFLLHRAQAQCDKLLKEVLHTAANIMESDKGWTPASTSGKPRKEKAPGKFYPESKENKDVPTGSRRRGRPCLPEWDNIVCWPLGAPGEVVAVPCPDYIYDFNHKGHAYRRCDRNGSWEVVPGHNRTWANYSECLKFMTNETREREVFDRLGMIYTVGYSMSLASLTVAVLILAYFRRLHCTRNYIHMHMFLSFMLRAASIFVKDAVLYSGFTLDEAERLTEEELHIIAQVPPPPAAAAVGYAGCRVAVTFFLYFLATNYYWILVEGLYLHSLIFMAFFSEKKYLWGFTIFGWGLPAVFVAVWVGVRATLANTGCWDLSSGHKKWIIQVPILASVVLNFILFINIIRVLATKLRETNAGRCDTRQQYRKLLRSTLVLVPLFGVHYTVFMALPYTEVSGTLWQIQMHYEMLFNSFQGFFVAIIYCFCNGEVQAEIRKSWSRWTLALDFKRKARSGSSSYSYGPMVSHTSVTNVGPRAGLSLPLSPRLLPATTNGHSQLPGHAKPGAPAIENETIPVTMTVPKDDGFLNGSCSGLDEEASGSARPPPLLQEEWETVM
Assay: cAMP production by PTH (1-34) analogues in MC3T3-EI osteoblast-like cells
Assay type: cell-based
Details: for Biological Activity (Represented by Relative Activity to hPTH(1-34)): cAMP production, 0.01-100 nM analogue, room temperature 30 minutes, hPTH(1-34) = 1.00
Procedure: The biological activity of the peptide analogues was evaluated by a modified version of the method reported by Shigeno et al. in The Journal of Biological Chemistry 263, 18369-18377 (1988). A culture solution (Hank's solution, containing 20 mM N-2-hydroxyethylpiperazine-N'-2-ethanesulfonic acid (HEPES), 0.1% bovine serum albumin and 0.5 mM isobutylmethyl-xanthine) containing 0.01, 0.1, 1, 10 or 100 nM analogue was added in an amount of 100 μto a mouse cranial bone-derived osteoblast-like cell strain, MC3T3-EI cells, cultivated on a 96-well multiplate (Nunclon, Nunc), followed by reaction at room temperature for 30 minutes. After addition of 100 μof 0.2N hydrochloric acid, the mixture was immersed in boiling water for 2.5 minutes, and cyclic adenosine monophosphate (cAMP) produced by a PTH receptor was extracted from the cells. The total cAMP in the culture solution and the cells was assayed using a commercial radioimmunoassay kit (cyclic AMP [^125 I] kit "Du Pont-Daiichi", Daiichi Kagaku Yakuhin).

Compound	Biological Activity (Represented by Relative Activity to hPTH(1-34))	cAMP production of the standard (human PTH (1-34) added as a standard, 0.01-100 nM)
CC[C@H](C)[C@H](NC(=O)[C@H](CCC(=O)O)NC(=O)[C@H](CO)NC(=O)[C@@H](NC(=O)[C@@H](N)CO)C(C)C)C(=O)N[C@@H](CCC(N)=O)C(=O)N[C@@H](CC(C)C)C(=O)N[C@@H](CCSC)C(=O)N[C@@H](Cc1c[nH]cn1)C(=O)N[C@@H](CC(N)=O)C(=O)N[C@@H](CCCCN)C(=O)NCC(=O)N[C@@H](CCCCN)C(=O)N[C@@H](Cc1c[nH]cn1)C(=O)N[C@@H](CC(C)C)C(=O)N[C@@H](CC(N)=O)C(=O)N[C@@H](CO)C(=O)N[C@@H](CCSC)C(=O)N[C@@H](CCC(=O)O)C(=O)N[C@@H](CCCNC(=N)N)C(=O)N[C@H](C(=O)N[C@@H](CCC(=O)O)C(=O)N[C@@H](Cc1c[nH]c2ccccc12)C(=O)N[C@@H](CC(C)C)C(=O)N[C@@H](CCCNC(=N)N)C(=O)N[C@@H](CCCCN)C(=O)N[C@@H](CCCCN)C(=O)N[C@@H](CC(C)C)C(=O)N[C@@H](CCC(N)=O)C(=O)N[C@@H](CC(=O)O)C(=O)N[C@H](C(=O)N[C@@H](Cc1c[nH]cn1)C(=O)N[C@@H](CC(N)=O)C(=O)N[C@@H](Cc1ccccc1)C(N)=O)C(C)C)C(C)C [[Lys^11] hPTH (1-34)NH2, (Lys^11)hPTH(1-34)NH2]	1.1	
CC[C@H](C)[C@H](NC(=O)[C@H](CCC(=O)O)NC(=O)[C@H](CO)NC(=O)[C@@H](NC(=O)[C@@H](N)CO)C(C)C)C(=O)N[C@@H](CCC(N)=O)C(=O)N[C@@H](CC(C)C)C(=O)N[C@@H](CCSC)C(=O)N[C@@H](Cc1c[nH]cn1)C(=O)N[C@@H](CC(N)=O)C(=O)N[C@@H](CC(C)C)C(=O)N[C@H](CO)C(=O)N[C@@H](CCCCN)C(=O)N[C@@H](Cc1c[nH]cn1)C(=O)N[C@@H](CC(C)C)C(=O)N[C@@H](CC(N)=O)C(=O)N[C@@H](CO)C(=O)N[C@@H](CCSC)C(=O)N[C@@H](CCC(=O)O)C(=O)N[C@@H](CCCNC(=N)N)C(=O)N[C@H](C(=O)N[C@@H](CCC(=O)O)C(=O)N[C@@H](Cc1c[nH]c2ccccc12)C(=O)N[C@@H](CC(C)C)C(=O)N[C@@H](CCCNC(=N)N)C(=O)N[C@@H](CCCCN)C(=O)N[C@@H](CCCCN)C(=O)N[C@@H](CC(C)C)C(=O)N[C@@H](CCC(N)=O)C(=O)N[C@@H](CC(=O)O)C(=O)N[C@H](C(=O)N[C@@H](Cc1c[nH]cn1)C(=O)N[C@@H](CC(N)=O)C(=O)N[C@@H](Cc1ccccc1)C(N)=O)C(C)C)C(C)C [[D-Ser^12] hPTH (1-34)NH2, (D-Ser^12)hPTH(1-34)NH2]	0.8	
CC[C@H](C)[C@H](NC(=O)[C@H](CCC(=O)O)NC(=O)[C@H](CO)NC(=O)[C@@H](NC(=O)[C@@H](N)CO)C(C)C)C(=O)N[C@@H](CCC(N)=O)C(=O)N[C@@H](CC(C)C)C(=O)N[C@@H](CCSC)C(=O)N[C@@H](Cc1c[nH]cn1)C(=O)N[C@@H](CC(N)=O)C(=O)N[C@@H](Cc1ccc2ccccc2c1)C(=O)NCC(=O)N[C@@H](CCCCN)C(=O)N[C@@H](Cc1c[nH]cn1)C(=O)N[C@@H](CC(C)C)C(=O)N[C@@H](CC(N)=O)C(=O)N[C@@H](CO)C(=O)N[C@@H](CCSC)C(=O)N[C@@H](CCC(=O)O)C(=O)N[C@@H](CCCNC(=N)N)C(=O)N[C@H](C(=O)N[C@@H](CCC(=O)O)C(=O)N[C@@H](Cc1c[nH]c2ccccc12)C(=O)N[C@@H](CC(C)C)C(=O)N[C@@H](CCCNC(=N)N)C(=O)N[C@@H](CCCCN)C(=O)N[C@@H](CCCCN)C(=O)N[C@@H](CC(C)C)C(=O)N[C@@H](CCC(N)=O)C(=O)N[C@@H](CC(=O)O)C(=O)N[C@H](C(=O)N[C@@H](Cc1c[nH]cn1)C(=O)N[C@@H](CC(N)=O)C(=O)N[C@@H](Cc1ccccc1)C(N)=O)C(C)C)C(C)C [[3-(2-naphthyl)-Ala^11] hPTH (1-34)NH2]	1.7	
CC[C@H](C)[C@H](NC(=O)[C@H](CCC(=O)O)NC(=O)[C@H](CO)NC(=O)[C@@H](NC(=O)[C@@H](N)CO)C(C)C)C(=O)N[C@@H](CCC(N)=O)C(=O)N[C@@H](CC(C)C)C(=O)N[C@@H](CCSC)C(=O)N[C@@H](Cc1c[nH]cn1)C(=O)N[C@@H](CC(N)=O)C(=O)N[C@@H](Cc1ccccc1)C(=O)NCC(=O)N[C@@H](CCCCN)C(=O)N[C@@H](Cc1c[nH]cn1)C(=O)N[C@@H](CC(C)C)C(=O)N[C@@H](CC(N)=O)C(=O)N[C@@H](CO)C(=O)N[C@@H](CCSC)C(=O)N[C@@H](CCC(=O)O)C(=O)N[C@@H](CCCNC(=N)N)C(=O)N[C@H](C(=O)N[C@@H](CCC(=O)O)C(=O)N[C@@H](Cc1c[nH]c2ccccc12)C(=O)N[C@@H](CC(C)C)C(=O)N[C@@H](CCCNC(=N)N)C(=O)N[C@@H](CCCCN)C(=O)N[C@@H](CCCCN)C(=O)N[C@@H](CC(C)C)C(=O)N[C@@H](CCC(N)=O)C(=O)N[C@@H](CC(=O)O)C(=O)N[C@H](C(=O)N[C@@H](Cc1c[nH]cn1)C(=O)N[C@@H](CC(N)=O)C(=O)N[C@@H](Cc1ccccc1)C(N)=O)C(C)C)C(C)C [[Phe^11] hPTH (1-34)NH2, (Phe^11)hPTH(1-34)NH2]	1.3	
CC[C@H](C)[C@H](NC(=O)[C@H](CCC(=O)O)NC(=O)[C@H](CO)NC(=O)[C@@H](NC(=O)[C@@H](N)CO)C(C)C)C(=O)N[C@@H](CCC(N)=O)C(=O)N[C@@H](CC(C)C)C(=O)N[C@@H](CCSC)C(=O)N[C@@H](Cc1c[nH]cn1)C(=O)N[C@@H](CC(N)=O)C(=O)N[C@@H](CC(C)C)C(=O)NCC(=O)N[C@@H](CCCCN)C(=O)N[C@@H](Cc1c[nH]cn1)C(=O)N[C@@H](CC(C)C)C(=O)N[C@@H](CC(N)=O)C(=O)N[C@@H](CO)C(=O)N[C@@H](CCSC)C(=O)N[C@@H](CCC(=O)O)C(=O)N[C@@H](CCCNC(=N)N)C(=O)N[C@H](C(=O)N[C@@H](CCC(=O)O)C(=O)N[C@@H](Cc1c[nH]c2ccccc12)C(=O)N[C@@H](CC(C)C)C(=O)N[C@@H](CCCNC(=N)N)C(=O)N[C@@H](CCCCN)C(=O)N[C@@H](CCCCN)C(=O)N[C@@H](CC(C)C)C(=O)N[C@@H](CCC(N)=O)C(=O)N[C@@H](CC(=O)O)C(=O)N[C@H](C(=O)N[C@@H](Cc1c[nH]cn1)C(=O)N[C@@H](CC(N)=O)C(=O)N[C@@H](Cc1ccccc1)C(=O)O)C(C)C)C(C)C [hPTH (1-34), hPTH(1-34), reference compound]	1.00	increase in cAMP production depending on the concentration
(Arg^19,21)hPTH(1-34)NH2 [[Arg^13, 21] hPTH (1-34)NH2]	0.9	
CC[C@H](C)[C@H](NC(=O)[C@H](CCC(=O)O)NC(=O)[C@H](CO)NC(=O)[C@@H](NC(=O)[C@@H](N)CO)C(C)C)C(=O)N[C@@H](CCC(N)=O)C(=O)N[C@@H](CC(C)C)C(=O)N[C@@H](CCSC)C(=O)N[C@@H](Cc1c[nH]cn1)C(=O)N[C@@H](CC(N)=O)C(=O)N[C@@H](CO)C(=O)NCC(=O)N[C@@H](CCCCN)C(=O)N[C@@H](Cc1c[nH]cn1)C(=O)N[C@@H](CC(C)C)C(=O)N[C@@H](CC(N)=O)C(=O)N[C@@H](CO)C(=O)N[C@@H](CCSC)C(=O)N[C@@H](CCC(=O)O)C(=O)N[C@@H](CCCNC(=N)N)C(=O)N[C@H](C(=O)N[C@@H](CCC(=O)O)C(=O)N[C@@H](Cc1c[nH]c2ccccc12)C(=O)N[C@@H](CC(C)C)C(=O)N[C@@H](CCCNC(=N)N)C(=O)N[C@@H](CCCCN)C(=O)N[C@@H](CCCCN)C(=O)N[C@@H](CC(C)C)C(=O)N[C@@H](CCC(N)=O)C(=O)N[C@@H](CC(=O)O)C(=O)N[C@H](C(=O)N[C@@H](Cc1c[nH]cn1)C(=O)N[C@@H](CC(N)=O)C(=O)N[C@@H](Cc1ccccc1)C(N)=O)C(C)C)C(C)C [[Ser^11] hPTH (1-34)NH2, (Ser^11)hPTH(1-34)NH2]	0.8	
